Experiment [1] deals with DIO mice. Nature of the experiment: Long-term administration of PB-716 series conjugates, weight loss in DIO mice (Example 16). The format is in vivo, C57BL/6 mice. How it is done: […] The continuous administration experiments was conducted for a total of 14 days. During the experimental period, the body weight and food intake of the mice were measured every day. Random blood sugar level was measured before the start of the experiment and after the complement of the experiment.

For experiment [2], the system named is DIO mice. Nature of the experiment: Long-term administration of PB-718, PB-119 and PB-708+PB-120, weight loss in DIO mice (Example 17). The format is in vivo, C57BL/6 mice. The following applies: 14 days. How it is done:
The Victoza group was dosed once a day and the remaining groups were dosed once every 2 days. The continuous administration experiment was conducted for a total of 14 days. During the experimental period, the body weight and food intake of the mice were measured every day. Random blood sugar level was measured before the start of the experiment and after the complement of the experiment.

Experiment [3] relates to nonalcoholic steatohepatitis (NASH) model mice. Nature of the experiment: Combination of PB-119 and PB-722 in nonalcoholic steatohepatitis (NASH) mouse model (Example 21). The format is in vivo, C57/BL6J mice. To be noted: 10 mg/kg orally once a day, 21 days. The text has this: 30 C57/BL6J mice (purchased from Lingchang Biotechnology Co. Ltd., Shanghai, China) were used in this experiment. Twenty four of them were intraperitoneally injected with streptozotocin (STZ) one week after they were born and fed with high-fat diet (purchased from Research Diets, Inc) for five weeks to successfully create a nonalcoholic steatohepatitis (NASH) model. The other 6 were used as normal control and fed with normal diet. The administration started at the sixth week. […] The positive control group was orally administered once a day and the other groups were administered subcutaneously once every two days for 21 consecutive days. During the administration period, body weight was measured every day and the food intake was measured every two days. After the last day of administration, the animals were fasted overnight, and then weighed and euthanized. Serum and liver tissues were taken and the liver weights were measured. Serum glucose and insulin levels were detected. Liver tissue was fixed with formaldehyde solution, and tissue sections were made and stained with HE, oil red and Sirius red. The sections were examined and scored to determine the NASH index.

In experiment [4] the test system is DIO mice. Kind of experiment: Long-term administration of PB-119 with PB-721 or PB-722, weight loss and lipids in DIO mice (Example 18). The format is in vivo, C57BL/6 mice. To be noted: for decrease of liver triglyceride content compared with model control group / decrease of serum total cholesterol content / serum triglyceride level: Day21; for decrease of cumulative food intake compared with model control group / body weight decrease compared with that before the administration: 21 days. How it is done:
Each group was administered subcutaneously, once every two days, and the experiment lasted for 21 days with 11 administrations. During the experimental period, the body weight and food intake of the mice were measured every day. The blood sugar level was measured at Day1 and Day21, and the serum triglyceride serum, total cholesterol, liver triglyceride and other indexes were measured at Day21.

The subject of experiment [5] is DIO mice. Nature of the experiment: Combination of PB-119 and PB-722, weight loss in DIO mice, 21 days (Example 20). The format is in vivo, C57BL/6 mice. To be noted: 10 nmol/kg once every two days. How it is done:
Male C57BL/6 mice (from the same source as described above) were fed with high-fat diet (45% kcal) for 22 weeks. […] 36 DIO mice were divided into 6 groups based on their body weight and random blood sugar level, with 6 mice per group. […] Except that administration was carried out twice a day in group 6, administration was carried out once every two days in other groups. The experiment was conducted for a total of 21 days for a continuous administration. The body weight and food intake of the mice were measured on the day of the administration, and random blood sugar level and fasting blood sugar level were measured on the second day after the last administration.
After 21 days of administration, an oral glucose tolerance experiment was performed. Mice were orally given 2.5 g/kg glucose solution, and random glucose level was measured at 0 min, 15 min, 30 min, 60 min and 120 min after sugar feeding.

`CCCCCCCCCCCCCCCC(=O)N[C@@H](CCC(=O)NCCCC[C@H](NC(=O)[C@H](C)NC(=O)[C@H](C)NC(=O)[C@H](CCC(N)=O)NC(=O)CNC(=O)[C@H](CCC(=O)O)NC(=O)[C@H](CC(C)C)NC(=O)[C@H](Cc1ccc(O)cc1)NC(=O)[C@H](CO)NC(=O)[C@H](CO)NC(=O)[C@@H](NC(=O)[C@H](CC(=O)O)NC(=O)[C@H](CO)NC(=O)[C@@H](NC(=O)[C@H](Cc1ccccc1)NC(=O)[C@@H](NC(=O)CNC(=O)[C@H](CCC(=O)O)NC(=O)[C@H](C)NC(=O)[C@@H](N)Cc1cnc[nH]1)[C@@H](C)O)[C@@H](C)O)C(C)C)C(=O)N[C@@H](CCC(=O)O)C(=O)N[C@@H](Cc1ccccc1)C(=O)N[C@H](C(=O)N[C@@H](C)C(=O)N[C@@H](Cc1c[nH]c2ccccc12)C(=O)N[C@@H](CC(C)C)C(=O)N[C@H](C(=O)N[C@@H](CCCNC(=N)N)C(=O)NCC(=O)N[C@@H](CCCNC(=N)N)C(=O)NCC(=O)O)C(C)C)[C@@H](C)CC)C(=O)O` [Victoza, reference compound]: the “body weight decrease compared with that before the administration” value (“body weight decrease” below) came out at 15.83% in experiment [1] (200 μg/kg once a day, 14 days) and 15.92% in experiment [2] (200 μg/kg once a day). Also, in experiment [1] (200 μg/kg once a day, end of 14-day continuous administration), the “decrease of cumulative food intake relative to model control group” value worked out at 50.82%. The “body weight compared with control group by 96 hours after first administration” value in experiment [1] (Victoza 200 μg/kg, single administration) is given as “no significant difference”.

In the case of `CCCc1nc2c(C)cc(-c3nc4ccccc4n3C)cc2n1Cc1ccc(-c2ccccc2C(=O)O)cc1` [telmisartan], the blood sugar level result in experiment [3] is listed as “no effect”.

Consider “mPEG-23 KD-ppMAL--PB-740 (HSQGTFTSDYSKYLDSRRAQDFVQWLMNTC; mPEG-23KD-ppMAL conjugate) [PB-721]”, for which, in experiment [4] (60 nmol/kg alone), the “decrease of liver triglyceride content compared with model control group” value is 73.29%, the “decrease of serum total cholesterol content” value worked out at 60.86% and the serum triglyceride level entry is given as “did not significantly improve”. Moreover, the “decrease of cumulative food intake compared with model control group” value in experiment [4] (60 nmol/kg alone, s.c. once every two days) is recorded as 2.36%. Also, the “body weight decrease” value in experiment [4] (alone, 60 nmol/L as printed, s.c. once every two days) came out at 21.65%.

Turning to mPEG-23 KD-ppMAL-PB-105 [PB-119], in experiment [2] (210 μg/kg once every 2 days), the “body weight decrease” value was determined as 13.33%, the “decrease of cumulative food intake compared with control group” value amounted to 39.95% and the “decrease of random blood sugar level” value is on record as 27.27%. Further, in experiment [4] (10 nmol/kg alone), the “decrease of liver triglyceride content compared with model control group” value worked out at 12.67%, the “decrease of serum total cholesterol content” value amounted to 39.35% and the serum triglyceride level result is “did not significantly improve”. In addition, the “decrease of cumulative food intake compared with model control group” value in experiment [4] (10 nmol/kg alone, s.c. once every two days) is 25.14%. Further, in experiment [4] (10 nmol/kg s.c. once every two days), the “body weight decrease” value is listed as 14.37%. Besides, in experiment [5], the “body weight decrease” value stood at 16.6%, the “decrease in cumulative food intake compared with control group” value is 14.4% and the “fasting blood sugar level decrease compared with that before administration” value stood at 17.9%.

These data come from US10894076B2 (PEGBIO CO., LTD., priority 2015, dated 2021).
